From patent US8188085B2, “Antifungal agents” (Merck Sharp & Dohme Corp., priority 2008, dated 2012) come the findings set out here.

The first test deals with glucan synthase (GS) prepared from Candida albicans MY1055 (Candida albicans, UniProt O13428). Kind of test: Glucan synthase inhibition (polymerization assay, 96-well). The test is classed as biochemical. Particulars: GS from C. albicans MY1055; 60 min incubation at 22° C. An outline of the steps: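 Partially purified glucan synthase from C. albicans MY1055 membranes incorporated 0.5 mM ³H-UDPG with 25 μM GTP-γ-S, HEPES pH 7.5, over 60 min at 22 °C. TCA-precipitated glucan was counted by scintillation. IC50 (ng/mL) came from sigmoidal fits of duplicate 3-fold dilution series.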
Sequence of glucan synthase (GS) prepared from Candida albicans MY1055 (O13428 1-1897): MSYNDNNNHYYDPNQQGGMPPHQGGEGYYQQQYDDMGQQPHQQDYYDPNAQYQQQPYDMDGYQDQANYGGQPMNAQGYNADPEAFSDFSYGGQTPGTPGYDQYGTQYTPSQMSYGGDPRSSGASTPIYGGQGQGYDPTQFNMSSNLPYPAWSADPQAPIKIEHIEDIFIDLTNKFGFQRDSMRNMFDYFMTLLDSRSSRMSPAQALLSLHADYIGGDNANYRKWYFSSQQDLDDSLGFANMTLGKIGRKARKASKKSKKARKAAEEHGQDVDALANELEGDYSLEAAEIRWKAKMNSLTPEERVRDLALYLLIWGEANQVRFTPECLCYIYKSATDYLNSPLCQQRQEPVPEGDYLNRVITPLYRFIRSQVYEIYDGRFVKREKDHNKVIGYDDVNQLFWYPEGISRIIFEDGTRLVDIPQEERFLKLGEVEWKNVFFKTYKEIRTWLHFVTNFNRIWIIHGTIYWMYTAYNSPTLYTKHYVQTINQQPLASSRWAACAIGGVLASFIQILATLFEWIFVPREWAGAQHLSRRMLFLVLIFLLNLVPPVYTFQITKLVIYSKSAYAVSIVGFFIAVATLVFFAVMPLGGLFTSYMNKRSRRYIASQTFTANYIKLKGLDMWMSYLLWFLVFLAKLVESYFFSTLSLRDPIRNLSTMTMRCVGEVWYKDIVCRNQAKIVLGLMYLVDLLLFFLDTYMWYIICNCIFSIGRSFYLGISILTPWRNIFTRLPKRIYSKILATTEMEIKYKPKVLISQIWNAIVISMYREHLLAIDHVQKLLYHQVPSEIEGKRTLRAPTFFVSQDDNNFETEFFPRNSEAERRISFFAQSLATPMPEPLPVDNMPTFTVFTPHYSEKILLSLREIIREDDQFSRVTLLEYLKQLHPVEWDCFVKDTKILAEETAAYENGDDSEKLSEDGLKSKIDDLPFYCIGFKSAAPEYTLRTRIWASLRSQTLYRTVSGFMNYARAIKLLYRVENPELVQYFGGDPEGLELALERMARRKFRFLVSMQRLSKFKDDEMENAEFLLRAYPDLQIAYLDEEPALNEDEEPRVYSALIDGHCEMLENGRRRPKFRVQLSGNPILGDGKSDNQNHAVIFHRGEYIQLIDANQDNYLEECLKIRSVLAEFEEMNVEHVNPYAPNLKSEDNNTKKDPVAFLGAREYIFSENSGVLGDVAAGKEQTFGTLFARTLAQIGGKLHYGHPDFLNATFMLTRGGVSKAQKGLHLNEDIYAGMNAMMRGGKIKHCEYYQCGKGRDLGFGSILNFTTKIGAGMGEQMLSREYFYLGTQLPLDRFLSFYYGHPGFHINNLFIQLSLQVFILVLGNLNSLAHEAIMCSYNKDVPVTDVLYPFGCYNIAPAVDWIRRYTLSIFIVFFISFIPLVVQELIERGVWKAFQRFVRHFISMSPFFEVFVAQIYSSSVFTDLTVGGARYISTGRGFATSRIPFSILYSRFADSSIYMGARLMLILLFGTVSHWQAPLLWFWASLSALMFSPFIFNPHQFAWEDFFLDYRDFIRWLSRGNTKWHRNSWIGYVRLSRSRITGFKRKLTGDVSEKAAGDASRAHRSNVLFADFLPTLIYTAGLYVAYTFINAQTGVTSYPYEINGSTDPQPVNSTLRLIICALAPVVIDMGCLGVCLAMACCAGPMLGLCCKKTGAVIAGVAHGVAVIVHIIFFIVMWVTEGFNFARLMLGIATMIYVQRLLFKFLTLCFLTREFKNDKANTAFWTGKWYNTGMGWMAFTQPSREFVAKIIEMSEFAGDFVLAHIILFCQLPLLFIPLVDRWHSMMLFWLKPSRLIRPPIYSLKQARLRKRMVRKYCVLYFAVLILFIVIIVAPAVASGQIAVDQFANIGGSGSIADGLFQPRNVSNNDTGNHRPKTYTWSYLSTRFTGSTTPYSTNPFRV
As to `CN[C@@](C)(CO[C@H]1[C@H](n2ncnc2I)C[C@@]23COC[C@]1(C)[C@@H]2CC[C@H]1C3=CC[C@@]2(C)[C@H](C(=O)O)[C@@](C)([C@H](C)C(C)C)CC[C@]12C)C(C)C` (racemic) [Example 22, (1S,4aR,6aS,7R,8R,10aR,10bR,12aR,14R,1SR)-15-[[(2R)-2,3-dimethyl-2-(methylamino)butyl]oxy]-8-[(1R)-1,2-dimethylpropyl]-14-(5-iodo-1H-1,2,4-triazol-1-yl)-1,6,6a,7,8,9,10,10a,10b,11,12,12a-dodecahydro-1,6a,8,10a-tetramethyl-4H-1,4a-propano-2H-phenanthro[1,2-c]pyran-7-carboxylic acid], the “Candida Albicans GS IC50” value was 5 ng/mL.

Staying with this test, now noted: GS from C. albicans MY1055; 60 min incubation at 22° C.; read-out: Candida Albicans GS IC50 (converted).
`CCOC(=O)c1nccn1[C@@H]1C[C@@]23COC[C@](C)([C@@H]2CC[C@H]2C3=CC[C@@]3(C)[C@H](C(=O)O)[C@@](C)([C@H](C)C(C)C)CC[C@]23C)[C@H]1OC[C@](C)(N)C(C)C` [Example 300, (1S,4aR,6aS,7R,8R,10aR,10bR,12aR,14R,15R)-15-[[(2R)-2-amino-2,3-dimethylbutyl]oxy]-8-[(1R)-1,2-dimethylpropyl]-14-[2-(ethoxycarbonyl)-1H-imidazol-1-yl]-1,6,6a,7,8,9,10,10a,10b,11,12,12a-dodecahydro-1,6a,8,10a-tetramethyl-4H-1,4a-propano-2H-phenanthro[1,2-c]pyran-7-carboxylic acid]: the IC50 was 675 nM.
Regarding `CCS(=O)(=O)c1ncnn1[C@@H]1C[C@@]23COC[C@](C)([C@@H]2CC[C@H]2C3=CC[C@@]3(C)[C@H](C(=O)O)[C@@](C)([C@H](C)C(C)C)CC[C@]23C)[C@H]1OC[C@](C)(N)C(C)C` [Example 140, (1S,4aR,6aS,7R,8R,10aR,10bR,12aR,14R,15R)-15-[[(2R)-2-amino-2,3-dimethylbutyl]oxy]-8-[(1R)-1,2-dimethylpropyl]-14-[5-(ethylsulfonyl)-1H-1,2,4-triazol-1-yl]-1,6,6a,7,8,9,10,10a,10b,11,12,12a-dodecahydro-1,6a,8,10a-tetramethyl-4H-1,4a-propano-2H-phenanthro[1,2-c]pyran-7-carboxylic acid], the IC50 was 6.84 nM.
Still for that read-out and setting: in the case of `CNC1(CO[C@H]2[C@H](n3cncn3)C[C@@]34COC[C@]2(C)[C@@H]3CC[C@H]2C4=CC[C@@]3(C)[C@H](C(=O)O)[C@@](C)([C@H](C)C(C)C)CC[C@]23C)CCCCC1` [Example 16, (1S,4aR,6aS,7R,8R,10aR,10bR,12aR,14R,15R)-8-[(1R)-1,2-dimethylpropyl]-15-[[1-(methylamino)cyclohexyl]methoxy]-14-(1H-1,2,4-triazol-1-yl)-1,6,6a,7,8,9,10,10a,10b,11,12,12a-dodecahydro-1,6a,8,10a-tetramethyl-4H-1,4a-propano-2H-phenanthro[1,2-c]pyran-7-carboxylic acid] it was 33.1 nM.
Still for that read-out and setting: as for `CC(C)[C@@H](C)[C@@]1(C)CC[C@]2(C)[C@H]3CC[C@@H]4[C@@]5(COC[C@@]4(C)[C@@H](OC[C@](C)(N)C(C)(C)C)[C@H](n4ncnc4-c4ccc(C6=NCCN6)cc4)C5)C3=CC[C@@]2(C)[C@@H]1C(=O)O` [Example 268, (1S,4aR,6aS,7R,8R,8R,10aR,10bR,12aR,14R,15R)-15-[[(2R)-2-amino-2,3,3-trimethylbutyl]oxy]-14-[5-[4-(4,5-dihydro-1H-imidazol-2-yl)phenyl]-1H-1,2,4-triazol-1-yl]-8-[(1R)-1,2-dimethylpropyl]-1,6,6a,7,8,9,10,10a,10b,11,12,12a-dodecahydro-1,6a,8,10a-tetramethyl-4H-1,4a-propano-2H-phenanthro[1,2-c]pyran-7-carboxylic acid], the figure is 0.376 nM; as for `CC(C)[C@@H](C)[C@@]1(C)CC[C@]2(C)[C@H]3CC[C@@H]4[C@@]5(COC[C@@]4(C)[C@@H](OC[C@@](C)(C(C)C)N(C)C)[C@H](n4cncn4)C5)C3=CC[C@@]2(C)[C@@H]1C(=O)O` [Example 18, (1S,4aR,6aS,7R,8R,10aR,10bR,12aR,14R,15R)-15-[[(2R)-2-(dimethylamino)-2,3-dimethylbutyl]oxy]-8-[(1R)-1,2-dimethylpropyl]-14-(1H-1,2,4-triazol-1-yl)-1,6,6a,7,8,9,10,10a,10b,11,12,12a-dodecahydro-1,6a,8,10a-tetramethyl-4H-1,4a-propano-2H-phenanthro[1,2-c]pyran-7-carboxylic acid], 12 nM; as for `CC(C)[C@@H](C)[C@@]1(C)CC[C@]2(C)[C@H]3CC[C@@H]4[C@@]5(COC[C@@]4(C)[C@@H](OC[C@](C)(N)C(C)C)[C@H](n4nc(N)nc4C4CC4)C5)C3=CC[C@@]2(C)[C@@H]1C(=O)O` (single isomer, unassigned) [Example 32A], 4.32 nM.
Same read-out and setting: in the case of `CC(C)[C@@H](C)[C@@]1(C)CC[C@]2(C)[C@H]3CC[C@@H]4[C@@]5(COC[C@@]4(C)[C@@H](OC[C@](C)(N)C(C)C)[C@H](n4nccn4)C5)C3=CC[C@@]2(C)[C@@H]1C(=O)O` (single isomer, unassigned) [Example 288B] it was 17.2 nM; in that of `CC(C)NC(=O)c1ncn([C@@H]2C[C@@]34COC[C@](C)([C@@H]3CC[C@H]3C4=CC[C@@]4(C)[C@H](C(=O)O)[C@@](C)([C@H](C)C(C)C)CC[C@]34C)[C@H]2OC[C@](C)(N)C(C)C)n1` (single isomer, unassigned) [Example 37B], 60.8 nM; in that of `CC(C)[C@@H](C)[C@@]1(C)CC[C@]2(C)[C@H]3CC[C@@H]4[C@@]5(COC[C@@]4(C)[C@@H](OC[C@](C)(N)C(C)C)[C@H](n4nccc4[N+](=O)[O-])C5)C3=CC[C@@]2(C)[C@@H]1C(=O)O` (single isomer, unassigned) [Example 293B], 4.39 nM.
Turning to `CC(C)[C@@H](C)[C@@]1(C)CC[C@]2(C)[C@H]3CC[C@@H]4[C@@]5(COC[C@@]4(C)[C@@H](OC[C@](C)(N)C(C)C)[C@H](n4nc(Cl)nc4Cl)C5)C3=CC[C@@]2(C)[C@@H]1C(=O)O` [Example 34, (1S,4aR,6aS,7R,8R,10aR,10bR,12aR,14R,15R)-15-[[(2R)-2-amino-2,3-dimethylbutyl]oxy]-14-(3,5-dichloro-1H-1,2,4-triazol-1-yl)-8-[(1R)-1,2-dimethylpropyl]-1,6,6a,7,8,9,10,10a,10b,11,12,12a-dodecahydro-1,6a,8,10a-tetramethyl-4H-1,4a-propano-2H-phenanthro[1,2-c]pyran-7-carboxylic acid], the IC50 is 46.6 nM.
On the same count and under the same terms, as for `CC(C)[C@@H](C)[C@@]1(C)CC[C@]2(C)[C@H]3CC[C@@H]4[C@@]5(COC[C@@]4(C)[C@@H](OC[C@](C)(N)C(C)C)[C@H](n4cc(Cl)cn4)C5)C3=CC[C@@]2(C)[C@@H]1C(=O)O` [Example 295, (1S,4aR,6aS,7R,8R,10aR,10bR,12aR,14R,15R)-15-[[(2R)-2-amino-2,3-dimethylbutyl]oxy]-14-(4-chloro-1H-pyrazol-1-yl)-8-[(1R)-1,2-dimethylpropyl]-1,6,6a,7,8,9,10,10a,10b,11,12,12a-dodecahydro-1,6a,8,10a-tetramethyl-4H-1,4a-propano-2H-phenanthro[1,2-c]pyran-7-carboxylic acid], the figure is 61 nM; as for `CNC(=O)c1ncnn1[C@@H]1C[C@@]23COC[C@](C)([C@@H]2CC[C@H]2C3=CC[C@@]3(C)[C@H](C(=O)O)[C@@](C)([C@H](C)C(C)C)CC[C@]23C)[C@H]1OC[C@](C)(N)C(C)(C)C` [Example 89, (1S,4aR,6aS,7R,8R,10aR,10bR,12aR,14R,15R)-15-[[(2R)-2-amino-2,3,3-trimethylbutyl]oxy]-8-[(1R)-1,2-dimethylpropyl]-14-[5-[(methylamino)carbonyl]-1H-1,2,4-triazol-1-yl]-1,6,6a,7,8,9,10,10a,10b,11,12,12a-dodecahydro-1,6a,8,10a-tetramethyl-4H-1,4a-propano-2H-phenanthro[1,2-c]pyran-7-carboxylic acid], 11.3 nM; as for `CC(C)[C@@H](C)[C@@]1(C)CC[C@]2(C)[C@H]3CC[C@@H]4[C@@]5(COC[C@@]4(C)[C@@H](OC[C@](C)(N)C(C)(C)C)[C@H](n4ncnc4-c4cccc(C(N)=O)c4)C5)C3=CC[C@@]2(C)[C@@H]1C(=O)O` [Example 228, (1S,4aR,6aS,7R,8R,10aR,10bR,12aR,14R,15R)-14-[5-[3-(aminocarbonyl)phenyl]-1H-1,2,4-triazol-1-yl]-15-[[(2R)-2-amino-2,3,3-trimethylbutyl]oxy]-8-[(1R)-1,2-dimethylpropyl]-1,6,6a,7,8,9,10,10a,10b,11,12,12a-dodecahydro-1,6a,8,10a-tetramethyl-4H-1,4a-propano-2H-phenanthro[1,2-c]pyran-7-carboxylic acid], 7.77 nM.
The same measure, in the same setting: in the case of `CC(C)[C@@H](C)[C@@]1(C)CC[C@]2(C)[C@H]3CC[C@@H]4[C@@]5(COC[C@@]4(C)[C@@H](OC[C@](C)(N)C(C)C)[C@H](n4ncnc4C(=O)NCC(F)(F)F)C5)C3=CC[C@@]2(C)[C@@H]1C(=O)O` [Example 80, (1S,4aR,6aS,7R,8R,10aR,10bR,12aR,14R,15R)-15-[[(2R)-2-amino-2,3-dimethylbutyl]oxy]-8-[(1R)-1,2-dimethylpropyl]-14-[5-[[(2,2,2-trifluoroethyl)amino]carbonyl]-1H-1,2,4-triazol-1-yl]-1,6,6a,7,8,9,10,10a,10b,11,12,12a-dodecahydro-1,6a,8,10a-tetramethyl-4H-1,4a-propano-2H-phenanthro[1,2-c]pyran-7-carboxylic acid] it was 10.5 nM.
Same read-out and setting: in the case of `CC(C)[C@@H](C)[C@@]1(C)CC[C@]2(C)[C@H]3CC[C@@H]4[C@@]5(COC[C@@]4(C)[C@@H](OC[C@](C)(N)C(C)C)[C@H](n4ncnc4-c4ccnc(-c6cccnc6)c4)C5)C3=CC[C@@]2(C)[C@@H]1C(=O)O` [Example 272, (1S,4aR,6aS,7R,8R,10aR,10bR,12aR,14R,15R)-15-[[(2R)-2-amino-2,3-dimethylbutyl]oxy]-14-(5-[2,3′-bipyridin]-4-yl-1H-1,2,4-triazol-1-yl)-8-[(1R)-1,2-dimethylpropyl]-1,6,6a,7,8,9,10,10a,10b,11,12,12a-dodecahydro-1,6a,8,10a-tetramethyl-4H-1,4a-propano-2H-phenanthro[1,2-c]pyran-7-carboxylic acid] it was 10.1 nM.
